Measurements published in BindingDB's records for doi:10.7270/Q2736PBV (Broad Institute, 2009).

target: T1, Streptokinase A (Streptococcus pyogenes serotype M1, UniProt P10520); test: S. pyogenes streptokinase expression inhibitors, potency, dose response, plasminogen activation absorbance, OD405 (AID 1914)
T1 sequence (P10520 whole entry): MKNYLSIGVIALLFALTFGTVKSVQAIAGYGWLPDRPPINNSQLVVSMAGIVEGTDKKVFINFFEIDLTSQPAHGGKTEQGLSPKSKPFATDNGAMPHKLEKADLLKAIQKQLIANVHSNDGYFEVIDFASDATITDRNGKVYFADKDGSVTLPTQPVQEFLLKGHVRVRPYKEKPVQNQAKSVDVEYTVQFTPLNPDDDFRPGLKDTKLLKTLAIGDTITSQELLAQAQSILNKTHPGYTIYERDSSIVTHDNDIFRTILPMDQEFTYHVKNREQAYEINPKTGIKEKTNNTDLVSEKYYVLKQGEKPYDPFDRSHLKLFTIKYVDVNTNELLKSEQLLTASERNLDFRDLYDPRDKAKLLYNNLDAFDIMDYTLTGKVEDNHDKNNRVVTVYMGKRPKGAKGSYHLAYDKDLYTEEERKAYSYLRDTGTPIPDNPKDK

Row | SMILES | EC50
1 | CN(C)c1ccc(C2CC(c3ccc(Cl)cc3OC(F)F)=Nc3ncnn32)cc1 (stereo not given) | > 150 µM
2 | CCc1ccc2[nH]c(=O)c(C3c4ccc5cccnc5c4OC(=N)C3C#N)cc2c1 (stereo not given) | > 150 µM
3 | COc1ccc(OC)c(NC=C2C(=O)NC(=S)N(Cc3ccccc3)C2=O)c1 | > 150 µM
4 | O=C1C=CC([N+](=O)[O-])=CC1/C=N/NC(=O)C(O)(c1ccccc1)c1ccccc1 (stereo not given) | > 150 µM
5 | CCCCCCC(N=O)c1ccccn1 (stereo not given) | > 150 µM
6 | C=CCn1c(-n2c(O)cc(Cc3ccccc3)c2O)nc2ccccc21 | > 150 µM
7 | Cc1cc(C)c(N=Nc2c(C)[nH]n(C(N)=S)c2=O)c(C)c1 | > 150 µM
8 | C=c1c(C#N)c(N)[nH]c2c(C#N)c(C)c(=Cc3ccc(C)cc3)c1=2 | 12.3 µM
9 | C=CCn1c(SCC(=O)C(C#N)C(C)=N)nc2sc(C)c(C)c2c1=O (stereo not given) | > 150 µM
10 | COc1cc(CN=Nc2nc(Nc3ccc(C)cc3)nc(-n3nc(C)cc3C)n2)cc(OC)c1OC | > 150 µM
11 | O=C1Nc2ccccc2SC1C=Nc1cccc(Cl)c1 (stereo not given) | > 150 µM
12 | Cc1nn(-c2ccccc2)c(C)c1CN=Nc1nc2ccccc2[nH]1 | > 150 µM
13 | CCC(C)N1C(=O)C(=CNNc2ccccc2)C(=O)NC1=S (stereo not given) | > 150 µM
14 | O=C(Oc1cccc(CN=Nc2nc(Nc3ccccc3)nc(N3CCOCC3)n2)c1)c1ccco1 | > 150 µM
15 | Cc1sc2ncnc(N=NCc3ccccc3O)c2c1C | 8.21 µM
16 | CC(N=Nc1ccc(Cl)c(Cl)c1)c1ccc(-n2ccnc2)cc1 (stereo not given) | 17.2 µM
17 | CC(N=Nc1nc2ccccc2s1)c1ccc2c(c1)OCO2 (stereo not given) | > 150 µM
18 | N#CC(C(=O)c1ccc([N+](=O)[O-])o1)c1nc2ccccc2[nH]1 (stereo not given) | 27.6 µM
19 | O=C1C([N+](=O)[O-])=CC(Cl)=CC1CN=Nc1nc2ccccc2s1 (stereo not given) | > 150 µM
20 | S=C1N=C(C23CC4CC(CC(C4)C2)C3)CC(c2ccc3c(c2)OCO3)N1 (stereo not given) | 22.5 µM

Row | SMILES | EC50
21 | O=C1C(=NNC(=S)Nc2ccccc2F)c2ccccc2N1Cc1ccc(F)cc1 | 0.607 µM
22 | CCOc1ccc(NC(=S)NNC2=c3ccccc3=NC2=O)cc1 | > 150 µM
23 | Cc1cc(C)nc(N=NCc2cc(Br)ccc2O)n1 | > 150 µM
24 | COC1=CC([N+](=O)[O-])=CC(/C=N/NC(=O)c2cc(-c3ccccc3)nc3ccccc23)C1=O (stereo not given) | > 150 µM
25 | Cc1cc(N=NC(C)c2ccccc2O)nc(-c2ccccc2O)n1 (stereo not given) | 14 µM
26 | COc1cccc(-n2c(O)c3[nH][nH]c(C(=O)CN4C(=O)c5ccccc5C4=O)c-3c2=O)c1 | > 150 µM
27 | Cc1ccc2nc(-n3c(O)c[nH]c3=S)sc2c1 | > 150 µM
28 | COc1ccc(CC(=O)N/N=C/C2C=C([N+](=O)[O-])C=C(Br)C2=O)cc1 (stereo not given) | > 150 µM
29 | CN(C)c1ccc(CN=Nc2nc3ccccc3o2)cc1 | > 150 µM
30 | O=C(N/N=C/C1C=C([N+](=O)[O-])C=CC1=O)c1cccc(NC(=O)c2cccc(Cl)c2)c1 (stereo not given) | > 150 µM
31 | CCOC(=O)c1sc(N2C(=O)C(=O)C(C(=O)c3ccco3)C2c2cccc(Cl)c2)nc1C (stereo not given) | > 150 µM
32 | CC(=NNC(=N)Sc1cc(O)n(-c2ccc(Cl)c(Cl)c2)c1O)c1cccs1 [1-(3,4-dichlorophenyl)-2,5-dioxo-3-pyrrolidinyl 2-[1-(2-thienyl)ethylidene]hydrazinecarbimidothioate] | 7.44 µM
33 | CCc1ccc2nc(N3C(=O)C(=O)C(C(=O)c4ccco4)C3c3cccs3)sc2c1 (stereo not given) [1-(6-ethyl-1,3-benzothiazol-2-yl)-3-(furan-2-ylcarbonyl)-4-oxidanyl-2-thiophen-2-yl-2H-pyrrol-5-one] | > 150 µM
34 | Oc1cc(N(CCc2ccccc2)C(=S)Nc2ccccc2)c(O)n1-c1ccc(Br)cc1 [1-[1-(4-bromophenyl)-2,5-bis(oxidanylidene)pyrrolidin-3-yl]-3-phenyl-1-(2-phenylethyl)thiourea] | 2.67 µM
35 | O=C1N=c2ccccc2=C1NNC(=S)NCCc1ccccc1 [1-[(2-oxo-3-indolyl)amino]-3-(2-phenylethyl)thiourea] | > 150 µM
36 | O=C1C(=NNC(=S)Nc2ccccc2F)c2ccccc2N1Cc1cccc(Cl)c1 [1-[(Z)-[1-[(3-chlorophenyl)methyl]-2-oxoindol-3-ylidene]amino]-3-(2-fluorophenyl)thiourea] | > 150 µM
37 | C[n+]1ccc(CN=Nc2nc(Cl)c(C#N)c(Cl)c2Cl)cc1 [2,4,5-trichloro-6-[2-[(1-methylpyridin-1-ium-4-yl)methylidene]hydrazinyl]pyridine-3-carbonitrile;chloride] | > 150 µM
38 | CC(N=Nc1nc(-c2ccccc2F)nc2ccccc12)c1ccccc1O (stereo not given) [2-(1-{[2-(2-Fluoro-phenyl)-quinazolin-4-yl]-hydrazono}-ethyl)-phenol] | > 150 µM
39 | COc1ccccc1Nc1oc2cc(=O)ccc-2cc1C(N)=O [2-(2-methoxyanilino)-7-oxo-1-benzopyran-3-carboxamide] | > 150 µM
40 | Cc1ccc(C(=O)C2C(=O)C(=O)N(Cc3ccco3)C2c2cccc(Br)c2)o1 (stereo not given) [2-(3-bromophenyl)-1-(2-furanylmethyl)-4-hydroxy-3-[(5-methyl-2-furanyl)-oxomethyl]-2H-pyrrol-5-one] | > 150 µM

Row | SMILES | EC50
41 | Oc1nc(Nc2ccc(Cl)cc2)sc1Cc1cccc(Cl)c1Cl [2-(4-chloroanilino)-5-(2,3-dichlorobenzyl)-2-thiazolin-4-one] | 131 µM
42 | Oc1nc(Nc2ccc(Cl)cc2)sc1Cc1cc(Cl)ccc1Cl [2-(4-chloroanilino)-5-(2,5-dichlorobenzyl)-2-thiazolin-4-one] | > 150 µM
43 | Cc1[nH]c2ccccc2c1/C=C1\N=C(c2ccc(F)cc2)OC1=O [2-(4-fluorophenyl)-4-[(2-methyl-1H-indol-3-yl)methylene]-1,3-oxazol-5(4H)-one] | 16.6 µM
44 | Cc1ccc(Nc2nc(N=NCc3ccc4c(c3)OCO4)nc(N3CCOCC3)n2)cc1 [2-N-(1,3-benzodioxol-5-ylmethylideneamino)-4-N-(4-methylphenyl)-6-morpholin-4-yl-1,3,5-triazine-2,4-diamine] | 111 µM
45 | O=C(O)c1ccccc1N=NCc1cc(Br)cc(Br)c1O [2-[2-[(E)-(3,5-dibromo-6-oxocyclohexa-2,4-dien-1-ylidene)methyl]hydrazinyl]benzoic acid] | 32.4 µM
46 | Cc1nn(-c2ccccc2)c(Cl)c1C1C2=C(CCCC2=O)OC(=N)C1C#N (stereo not given) [2-azanyl-4-(5-chloranyl-3-methyl-1-phenyl-pyrazol-4-yl)-5-oxidanylidene-4,6,7,8-tetrahydrochromene-3-carbonitrile] | > 150 µM
47 | Cc1nn(-c2ccccc2)c(Cl)c1C1C2=C(CC(C)(C)CC2=O)OC(=N)C1C#N (stereo not given) [2-azanyl-4-(5-chloranyl-3-methyl-1-phenyl-pyrazol-4-yl)-7,7-dimethyl-5-oxidanylidene-6,8-dihydro-4H-chromene-3-carbonitrile] | > 150 µM
48 | Cc1ccc(NN=C(C=O)C(=O)c2ccc(Cl)cc2)cc1 [3-(4-chlorophenyl)-2-[(4-methylphenyl)hydrazinylidene]-3-oxopropanal] | 50 µM
49 | COc1ccc2nc(-n3c(O)c[nH]c3=S)sc2c1 [3-(6-methoxy-1,3-benzothiazol-2-yl)-2-sulfanylidene-imidazolidin-4-one] | > 150 µM
50 | CCOc1cc(CN=Nc2cccc(C(=O)O)c2)ccc1OC(=O)c1ccccc1 [3-[(N''E)-N''-(4-benzoyloxy-3-ethoxy-benzylidene)hydrazino]benzoic acid] | > 150 µM
51 | CCOC(=O)C1C(=N)Oc2ccc3ccccc3c2C1c1ccc(O)cc1 (stereo not given) [3-amino-1-(4-hydroxyphenyl)-1H-benzo[f][1]benzopyran-2-carboxylic acid ethyl ester] | 11.5 µM
52 | Cc1cccc(NC(=O)C2=C(N)C(C(=O)N3CCOCC3)/C(=N/c3c(C)cccc3C)S2)c1 (stereo not given) [3-amino-5-(2,6-dimethylphenyl)imino-N-(3-methylphenyl)-4-(morpholine-4-carbonyl)-2H-thiophene-2-carboxamide] | 3.32 µM
53 | CCCCCCn1[nH]c(C)c(C(=O)c2ccc(Cl)cc2)c1=O [4-(4-Chloro-benzoyl)-2-hexyl-5-methyl-2,4-dihydro-pyrazol-3-one] | > 150 µM
54 | C=CCOC(=O)C1=C(C)N=C(SCC)C(C#N)C1c1ccc(Cl)cc1 (stereo not given) [4-(4-Chloro-phenyl)-5-cyano-6-ethylsulfanyl-2-methyl-1,4-dihydro-pyridine-3-carboxylic acid allyl ester] | 8.34 µM
55 | C=c1[nH]n(-c2ccccc2)c(=O)c1=C(C=Cc1cccc(OC)c1OC)c1ccc(Br)cc1 [4-[1-(4-Bromo-phenyl)-3-(2,3-dimethoxy-phenyl)-allylidene]-5-methyl-2-phenyl-2,4-dihydro-pyrazol-3-one] | > 150 µM
56 | O=C(O)c1ccc(N=NCc2ccc(OC(=O)c3cccc(Cl)c3)cc2)cc1 [4-[2-[[4-[(3-chlorophenyl)-oxomethoxy]phenyl]methylidene]hydrazinyl]benzoic acid] | > 150 µM
57 | CNC(=Nc1cc(Cl)ccc1Cl)Sc1cc(O)n(-c2ccc(C(=O)OC)cc2)c1O [4-[3-[[(2,5-dichloroanilino)-methyliminomethyl]thio]-2,5-dioxo-1-pyrrolidinyl]benzoic acid methyl ester] | 50 µM
58 | CC(C)(C)c1cc(-c2cs/c(=N\c3ccccc3)n2Cc2ccc(C(=O)O)cc2)cc(C(C)(C)C)c1O [4-[[4-(3,5-ditert-butyl-4-oxidanyl-phenyl)-2-phenylazanyl-1,3-thiazol-3-ium-3-yl]methyl]benzoic acid;bromide] | > 150 µM
59 | CCCCCCCn1[nH]c(C)c(C(=O)c2ccccc2)c1=O [4-benzoyl-2-heptyl-5-methyl-2,4-dihydro-3H-pyrazol-3-one] | > 150 µM
60 | Cc1ccc(NNC2=CS(=O)(=O)N(C)c3ccsc32)cc1 [4-methyl-N-[(1-methyl-2,2-dioxo-4-thieno[3,2-c]thiazinylidene)amino]aniline] | 4.04 µM
